Assay results taken from patent publication US20060134719A1, “Novel serine protease” (priority 2002, published 2006).
*: point of attachment. AMC = Cc1cc(=O)oc2cc(N*)ccc12; Boc = CC(C)(C)OC(=O)*; OBn = c1ccc(CO*)cc1

Columns and labels:
Conditions in all cases: substrate 100 μM in TBS pH 7.5, 37° C.; never obtained with blank vector supernatant
[1] = tested on: ARS-FLAG culture supernatant (recombinant ARS protein, SEQ ID NO:2 1st to 531st); assay: Enzymatic cleavage of MCA-labeled synthetic peptides by ARS-FLAG culture supernatant; type: biochemical, human
Procedure: (§1) The expression plasmids prepared in Examples 3 to 5 were introduced into HEK293-EBNA cell (Invitrogen) using a transfection reagent (FuGENE™6 transfection reagent; Roche) according to the instruction attached thereto. After the introduction of the plasmids, the culture medium was replaced with a serum-free culture medium within 12 to 16 hours and further incubated for another 48 to 60 hours. The culture supernatant was collected and resulting each liquid culture was centrifuged (3000 rpm, 10 minutes) with a centrifuge (Type 8800; Kubota) to obtain culture supernatants. After removing the culture supernatants, the remaining cells were washed with phosphate buffer (PBS; 10 mM sodium phosphate, pH 7.5) and then recovered by scraping from the culture plate by pipetting with phosphate buffer, and centrifuged with a centrifuge (Type 8800; Kubota) at 3000 rpm for 10 minutes. The resulting precipitate was suspended in phosphate buffer, which was defined as the cell fraction. The culture supernatants obtained by the introduction of pCEP-ARSF-FLAG, pCEP-signal-FLAG-ARS-extracellular and pCEP-signal-FLAG-ARS-SerPD are referred to as ARS-FLAG culture supernatant, signal-FLAG-ARS-extracellular culture supernatant, signal-FLAG-ARS-SerPD culture supernatant and signal-FLAG-ARS-SerPDO culture supernatant, respectively.
(§2) The method for detecting enzymatic cleavage activity using a synthetic peptide labeled with MCA (4-methyl-coumaryl-7-amide) in the C terminus was according to the method reported in an academic paper (Yasuoka, S. et al., Am. J. Respir. Cell Mol Biol., Vol. 16, 300-308, 1997), unless otherwise described. […] Subsequently, the fluorescence of AMC (7-amino-4-methyl-coumarin) released from the synthetic peptide by enzymatic cleavage was measured at a wavelength of 460 nm for measurement, using an excitation wavelength of 390 nm with a fluorescent plate reader (Fluostar, SLT).

[2] = target: T1, signal-FLAG-ARS-extracellular culture supernatant (SEQ ID NO:2 51st to 531st) (Homo sapiens, UniProt Q7Z410, INS90FVSSFQKTELEASCVGCSVLNYRDGNSSVLVHFQ); assay: Enzymatic cleavage of MCA-labeled synthetic peptides by signal-FLAG-ARS-extracellular culture supernatant; type: biochemical
T1 construct: made in house; host or cells: HEK293-EBNA
T1 sequence (Q7Z410 with tags, fused parts or gaps): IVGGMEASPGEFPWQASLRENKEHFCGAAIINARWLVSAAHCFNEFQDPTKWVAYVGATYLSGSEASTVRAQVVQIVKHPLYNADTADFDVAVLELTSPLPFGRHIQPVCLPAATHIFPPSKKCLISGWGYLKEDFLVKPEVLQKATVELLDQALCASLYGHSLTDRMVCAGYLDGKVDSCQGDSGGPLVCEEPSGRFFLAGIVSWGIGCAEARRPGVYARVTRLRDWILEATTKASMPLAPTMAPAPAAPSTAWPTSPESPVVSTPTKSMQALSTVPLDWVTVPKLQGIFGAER
T1 sequence (Q7Z410 with tags, fused parts or gaps INS90FVSSFQKTELEASCVGCSVLNYRDGNSSVLVHFQ): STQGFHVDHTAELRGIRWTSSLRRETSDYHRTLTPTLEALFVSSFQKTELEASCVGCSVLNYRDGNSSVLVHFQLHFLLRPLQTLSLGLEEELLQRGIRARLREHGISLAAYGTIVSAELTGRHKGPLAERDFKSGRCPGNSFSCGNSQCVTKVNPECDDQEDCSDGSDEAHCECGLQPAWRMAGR
Procedure: as §1, §2

[3] = target: T2, signal-FLAG-ARS-SerPDO culture supernatant (SEQ ID NO:2 237th to 464th) (Homo sapiens, UniProt Q7Z410); assay: Enzymatic cleavage of MCA-labeled synthetic peptides by signal-FLAG-ARS-SerPDO culture supernatant; type: biochemical
T2 construct: made in house; host or cells: HEK293-EBNA
T2 sequence (Q7Z410 203-430): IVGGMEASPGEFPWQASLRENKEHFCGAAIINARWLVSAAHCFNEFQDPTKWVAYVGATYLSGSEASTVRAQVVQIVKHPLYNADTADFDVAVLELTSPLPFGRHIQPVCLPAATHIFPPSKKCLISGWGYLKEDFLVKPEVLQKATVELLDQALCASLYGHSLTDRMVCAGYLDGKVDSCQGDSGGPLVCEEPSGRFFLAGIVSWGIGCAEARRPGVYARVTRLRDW
Procedure: as §1, §2

[4] = target: T3, signal-FLAG-ARS-SerPD culture supernatant (SEQ ID NO:2 237th to 531st) (Homo sapiens, UniProt Q7Z410); assay: Enzymatic cleavage of MCA-labeled synthetic peptides by signal-FLAG-ARS-SerPD culture supernatant; type: biochemical
T3 construct: made in house; host or cells: HEK293-EBNA
T3 sequence (Q7Z410 with tags, fused parts or gaps): T1 sequence (Q7Z410 with tags, fused parts or gaps)
Procedure: as §1, §2

cleavage activity of synthetic peptide (fluorescence of released AMC) [2]	cleavage activity of synthetic peptide (fluorescence of released AMC) [3]	cleavage activity of synthetic peptide (fluorescence of released AMC) [4]	Substance	cleavage activity of synthetic peptide (fluorescence of released AMC) [1]
showed the cleavage activity	showed the cleavage activity	showed the cleavage activity	Boc-Glu(OBn)-Ala-Arg-{AMC}	showed the cleavage activity
showed the cleavage activity	showed the cleavage activity	showed the cleavage activity	Boc-Phe-Ser-Arg-{AMC}	showed the cleavage activity
showed the cleavage activity	showed the cleavage activity	showed the cleavage activity	Boc-Gln-Arg-Arg-{AMC}	showed the cleavage activity
